# Data reported in US20110065734A1, “NOVEL BIFUNCTIONAL COMPOUNDS WHICH INHIBIT PROTEIN KINASES AND HISTONE DEACETYLASES” (4SC AG, priority 2007, published 2011).
# Structures can show the parent of a compound that is named as a salt. Where two headings read alike, the source gives them in different places.
# Experiments:
# [1] = system: A549 NSCLC cell line; assay: Cellular cytotoxicity assay (Alamar Blue), A549; format: cell-based; conditions: Homo sapiens
# Procedure: (§1) The anti-proliferative activity of the chimeric HDAC and protein kinase inhibitory chimeric compounds of the present invention was evaluated using HeLa cervical carcinoma, A549 NSCLC, SKOV3 ovarian carcinoma, Cal27 head and neck cancer, K562 chronic myeloid leukemia (CML) and EOL1 acute hypereosinophilic myeloid leukemia, cell lines. For quantification of cellular proliferation/living cells the Alamar Blue (Resazurin) cell viability assay was applied (O'Brien et al. Eur Biochem. 267, 5421-5426, 2000). In this assay Resazurin is reduced to the fluorescent resorufin by cellular dehydrogenase activity, correlating with viable, proliferating cells. The examples were dissolved as 20 mM solutions in dimethylsulfoxide (DMSO) and subsequently diluted in semi-logarithmic steps. Cell lines were seeded at respective density into 96 well flat bottom plates in a volume of 200 μl per well. 24 h after seeding 1 μl each of the compound dilutions were added into each well of the 96 well plate. Each compound dilution was tested as quadruplicates. Wells containing untreated control cells were filled with […] DMEM medium containing 0.5% v:v DMSO. The cells were then incubated with the substances for 72 h at 37° C. in a humidified atmosphere containing 5% carbon dioxide. To determine the viability of the cells, 20 μl of an Resazurin solution (Sigma; 90 mg/l) were added. After 4 h incubation at 37° C. the fluorescence was measured at an extinction of 544 nm and an emission of 590 nm. For the calculation of the cell viability the emission value from untreated cells was set as 100% viability and the emission rates of treated cells were set in relation to the values of untreated cells. Viabilities were expressed as % values. The corresponding IC50 values of the compounds for cytotoxic activity are determined from the concentration-effect curves by means of non-linear regression.
# [2] = molecular target: T1, EGFR/HER1 (Homo sapiens, UniProt P00533); assay: Biochemical flash-plate based kinase assay, EGFR/HER1; conditions: only a range over the listed compounds is given; read-out: EGFR/HER1 inhibition IC50
# T1 construct: EGFR/HER1 C-terminal kinase domain; made in house
# Excerpt: (§2) Active kinase proteins were either obtained from commercial suppliers (Abl, PDGF-Rβ ProQinase, Freiburg/Germany; AblT^315I: Millipore/Upstate, Billerica/USA; PKA: InvitroGen/Panvera, Carlsbad/USA) or prepared in-house (KDR, c-terminal kinase domain AA790-1356, HER2 c-terminal kinase domain, EGFR/HER1 C-terminal kinase domain). As substrates, poly-AGKY for Abl, AblT^315I and PDGF-Rβ (#P-1152 Sigma, Munich/Germany), poly-GluTyr for KDR, HER2 and EGFR/HER1 (#P-0275, Sigma, Munich/Germany) or a PKA substrate peptide for PKA (#12-394, Millipore/Upstate, Billerica/USA) were used. Into each well of a 96-well flashplate (#SMP-200 in the case of Abl, Abl T^315I, PDGF-Rβ, EGFR, HER2 and KDR, #SMP-103 in the case of PKA; Perkin Elmer, Waltham/USA) kinase protein was diluted into kinase assay buffer (50 mM HEPES pH 7.5, 3 mM MgCl2, 3 mM MnCl2, 1 mM DTT, 3 μM sodium orthovanadate, 5 μg/ml PEG 8000) containing the appropriate substrate (final volume 89 μl). DMSO vehicle or compounds are added as 1 μl/well prior to the initiation of the kinase reaction by 10 μl 1 mM [^33P]-γATP (4×10^5 cpm). Reactions were allowed to proceed for a time predetermined to be linear on a time versus phosphorylation plot (30 min for PKA, otherwise 80 min) and terminated with the addition of an equal volume of phosphoric acid (2% H3PO4 for 5 minutes). Plates were washed three times with 0.9% w/v NaCl and quantitated by liquid scintillation counting.
# [3] = system: histone H3 hyperacetylation in HeLa cervical carcinoma cells; assay: Cellular histone H3 hyperacetylation assay; format: cell-based; conditions: Homo sapiens, 24 h, only a range over the listed compounds is given, read-out: Induction of histone H3 hyperacetylation in HeLa cervical carcinoma cells EC50
# Excerpt: To assess the cellular efficacy of a histone deacetylase inhibitor in vitro, an assay was set up in black clear-bottom 96-well plates and optimized for use on the Cellomics “ArrayScan II” platform for a quantitative calculation of histone acetylation. The protocol uses a polyclonal rabbit antibody, specifically binding to acetylated lysine 1-20 of human histone H3 on fixed cells with an Alexa Fluor 488 labeled goat anti rabbit-IgG used for counterstaining (Beckers et al. Int J. Cancer 121, 1138, 2007).
# 5×10^3 HeLa cervical carcinoma cells/well (ATCC. CCL-2) in 200 μl Dulbecco rs modified Eagle's medium (DMEM) containing 10% fetal calf serum are seeded at day 1 in Packard view plates and incubated for 24 h under standard cell culture conditions. On day 2, 1 μl test compound (200× final concentration) is added and incubation continued for further 24 h. On day 3, the culture medium is discarded and attached cells fixed for 15 min at room temperature by addition of 100 μl fixation buffer (3.7% v:v formaldehyde in phosphate buffered saline/PBS). After discarding the fixation buffer and one wash with blocking solution (1% BSA, 0.3% Tween 20 in PBS), cells are permeabilized at room temperature by addition of 100 μl/well permeabilization buffer (30.8 mM NaCl, 0.54 mM Na2HPO4, 0.31 mM KH2PO4, 0.1% v:v Triton X-100) for 15 min at room temperature. After discarding the permeabilization buffer and washing twice with 100 μl/well blocking solution at room temperature, the 1st antibody (anti-K^1-20 histone H3 antibody, Calbiochem No. 382158) in blocking solution (50 μl/well) is added. After incubation for 1 h at room temperature, the wells are washed twice at room temperature with 100 μl/well blocking solution before addition of the 2nd antibody (goat-anti-rabbit Alexa Fluor 488; MoBiTec No. A-11008) in blocking solution (50 μl/well). After further incubation for 1 h at room temperature, wells are washed twice with 100 μl/well blocking solution at room temperature. Finally, 100 μl/well PBS are added and image analysis performed on the Cellomics “ArrayScan II” platform. For EC50 determination, the percentage of positive cells showing nuclear fluorescence is determined and EC50 calculation done from concentration-effect curves by means of non-linear regression. For calibration, a positive (reference HDAC inhibitors like SAHA or NVP LBH-589) and a negative control were included.
# [4] = molecular target: T2, recombinant HDAC1 isolated from HEK293 cells with heterologous HDAC1 expression (Homo sapiens, UniProt Q13547); assay: Fluorimetric rHDAC1 activity assay; format: biochemical; conditions: only a range of IC50 over the compounds given; read-out: rHDAC1 inhibitory activity IC50
# T2 construct: made in house
# [5] = molecular target: T3, Protein kinase A (PKA) (Homo sapiens, UniProt P17612); assay: Biochemical flash-plate based kinase assay, PKA
# T3 construct: purchased InvitroGen/Panvera, Carlsbad/USA
# Excerpt: as §2
# [6] = molecular target: T4, PDGFRβ (Homo sapiens, UniProt P09619); assay: Biochemical flash-plate based kinase assay, PDGFRβ; conditions: only a range over the listed compounds is given; read-out: PDGFRβ inhibition IC50
# T4 construct: purchased ProQinase, Freiburg/Germany
# Excerpt: as §2
# [7] = system: K562 chronic myeloid leukemia (CML) cell line; assay: Cellular cytotoxicity assay (Alamar Blue), K562; format: cell-based; conditions: Homo sapiens, 72 h, only a range over the listed compounds is given, read-out: Cytotoxicity towards K562 CML cell line IC50
# Procedure: as §1
# [8] = molecular target: T5, Bcr-abl (wt) (Homo sapiens, UniProt P00519); assay: Biochemical flash-plate based kinase assay, Bcr-abl (wt); conditions: only a range over the listed compounds is given; read-out: Bcr-abl (wt) inhibition IC50
# T5 construct: purchased ProQinase, Freiburg/Germany
# T5 sequence (P00519 118-553 limits assumed): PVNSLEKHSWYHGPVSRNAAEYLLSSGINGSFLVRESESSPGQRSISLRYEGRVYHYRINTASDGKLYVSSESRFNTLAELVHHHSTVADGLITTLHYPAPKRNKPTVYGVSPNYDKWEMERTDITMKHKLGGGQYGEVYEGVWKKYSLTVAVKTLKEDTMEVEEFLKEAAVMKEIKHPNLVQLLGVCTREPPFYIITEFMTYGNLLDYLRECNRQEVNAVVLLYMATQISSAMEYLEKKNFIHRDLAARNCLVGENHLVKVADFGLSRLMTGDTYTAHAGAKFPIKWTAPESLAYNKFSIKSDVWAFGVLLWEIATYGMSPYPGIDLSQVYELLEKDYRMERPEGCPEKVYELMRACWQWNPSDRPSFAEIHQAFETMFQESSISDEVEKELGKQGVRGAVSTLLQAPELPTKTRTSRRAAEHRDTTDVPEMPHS
# Excerpt: as §2
# [9] = system: HeLa cervical carcinoma cell line; assay: Cellular cytotoxicity assay (Alamar Blue), HeLa; format: cell-based; conditions: Homo sapiens, 72 h, only a range over the listed compounds is given, read-out: Cytotoxicity towards HeLa cervical cell line IC50
# Procedure: as §1
# [10] = molecular target: T6, Bcr-abl T^315I (Homo sapiens, UniProt P00519, T315I); assay: Biochemical flash-plate based kinase assay, Bcr-abl T315I; conditions: only a range over the listed compounds is given; read-out: Bcr-abl T^315I inhibition IC50
# T6 construct: purchased Millipore/Upstate, Billerica/USA
# Excerpt: as §2
# [11] = system: EOL1 acute hypereosinophilic myeloid leukemia cell line; assay: Cellular cytotoxicity assay (Alamar Blue), EOL1; format: cell-based; conditions: Homo sapiens, 72 h, only a range over the listed compounds is given, read-out: Cytotoxicity towards EOL1 cell line IC50
# Procedure: as §1
# [12] = system: Cal27 head and neck cancer cell line; assay: Cellular cytotoxicity assay (Alamar Blue), Cal27; format: cell-based; conditions: Homo sapiens, CAL-27; 72 h; only a range over the listed compounds is given; read-out: Cytotoxicity towards Cal27 cell line IC50
# Procedure: as §1
# [13] = system: SKOV3 ovarian carcinoma cell line; assay: Cellular cytotoxicity assay (Alamar Blue), SKOV3; format: cell-based; conditions: Homo sapiens, SK-OV-3; 72 h; only a range over the listed compounds is given; read-out: Cytotoxicity towards SKOV3 cell line IC50
# Procedure: as §1
# [14] = molecular target: T7, HER2 (Homo sapiens, UniProt P04626); assay: Biochemical flash-plate based kinase assay, HER2; conditions: only a range over the listed compounds is given; read-out: HER2 inhibition IC50
# T7 construct: HER2 c-terminal kinase domain; made in house
# Excerpt: as §2, with “Reactions were allowed to proceed for a time predetermined to be linear on a time versus phosphorylation plot (30 min for PKA, otherwise 80 min) and terminated with the addition of an equal volume of phosphoric acid (2% H3PO4 for 5 minutes).” left out
# [15] = A549, 72 h, only a range over the listed compounds is given, read-out: Cytotoxicity towards A549 NSCLC cell line IC50
# T1 sequence (P00533 712-979 limits assumed): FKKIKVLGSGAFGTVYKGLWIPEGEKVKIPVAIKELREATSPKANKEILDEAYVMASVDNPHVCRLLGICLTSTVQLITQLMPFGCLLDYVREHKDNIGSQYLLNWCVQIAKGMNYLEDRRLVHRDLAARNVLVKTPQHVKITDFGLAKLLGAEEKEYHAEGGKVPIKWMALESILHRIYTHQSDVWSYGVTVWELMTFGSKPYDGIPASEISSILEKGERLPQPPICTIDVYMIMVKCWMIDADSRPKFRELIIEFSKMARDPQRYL
# T4 sequence (P09619 33-1106): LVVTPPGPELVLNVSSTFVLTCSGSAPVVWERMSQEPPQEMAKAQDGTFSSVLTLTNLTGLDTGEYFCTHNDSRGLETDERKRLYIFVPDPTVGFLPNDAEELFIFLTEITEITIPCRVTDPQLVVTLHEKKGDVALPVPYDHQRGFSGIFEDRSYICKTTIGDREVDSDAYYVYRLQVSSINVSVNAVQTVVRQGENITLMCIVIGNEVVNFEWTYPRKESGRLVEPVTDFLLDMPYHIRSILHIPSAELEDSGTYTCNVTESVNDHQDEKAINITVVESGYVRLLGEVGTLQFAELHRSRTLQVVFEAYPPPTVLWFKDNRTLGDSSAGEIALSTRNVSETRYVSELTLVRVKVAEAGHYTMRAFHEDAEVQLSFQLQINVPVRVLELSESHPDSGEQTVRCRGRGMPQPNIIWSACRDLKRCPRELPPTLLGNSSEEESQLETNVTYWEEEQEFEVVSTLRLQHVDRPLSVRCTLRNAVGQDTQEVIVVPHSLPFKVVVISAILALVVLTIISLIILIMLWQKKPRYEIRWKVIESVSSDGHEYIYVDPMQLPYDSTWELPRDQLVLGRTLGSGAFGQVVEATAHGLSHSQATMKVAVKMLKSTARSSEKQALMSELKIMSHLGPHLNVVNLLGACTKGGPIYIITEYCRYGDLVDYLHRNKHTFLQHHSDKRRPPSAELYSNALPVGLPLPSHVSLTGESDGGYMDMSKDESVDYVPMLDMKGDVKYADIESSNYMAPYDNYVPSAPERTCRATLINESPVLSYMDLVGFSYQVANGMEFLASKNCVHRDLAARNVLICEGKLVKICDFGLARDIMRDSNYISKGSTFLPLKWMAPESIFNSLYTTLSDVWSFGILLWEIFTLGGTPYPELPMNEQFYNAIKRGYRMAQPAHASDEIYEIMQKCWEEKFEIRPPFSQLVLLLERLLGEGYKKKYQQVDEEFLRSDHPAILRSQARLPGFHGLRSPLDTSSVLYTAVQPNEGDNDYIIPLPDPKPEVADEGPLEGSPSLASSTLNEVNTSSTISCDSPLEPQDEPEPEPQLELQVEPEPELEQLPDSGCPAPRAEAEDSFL
# T2 sequence (Q13547 whole entry): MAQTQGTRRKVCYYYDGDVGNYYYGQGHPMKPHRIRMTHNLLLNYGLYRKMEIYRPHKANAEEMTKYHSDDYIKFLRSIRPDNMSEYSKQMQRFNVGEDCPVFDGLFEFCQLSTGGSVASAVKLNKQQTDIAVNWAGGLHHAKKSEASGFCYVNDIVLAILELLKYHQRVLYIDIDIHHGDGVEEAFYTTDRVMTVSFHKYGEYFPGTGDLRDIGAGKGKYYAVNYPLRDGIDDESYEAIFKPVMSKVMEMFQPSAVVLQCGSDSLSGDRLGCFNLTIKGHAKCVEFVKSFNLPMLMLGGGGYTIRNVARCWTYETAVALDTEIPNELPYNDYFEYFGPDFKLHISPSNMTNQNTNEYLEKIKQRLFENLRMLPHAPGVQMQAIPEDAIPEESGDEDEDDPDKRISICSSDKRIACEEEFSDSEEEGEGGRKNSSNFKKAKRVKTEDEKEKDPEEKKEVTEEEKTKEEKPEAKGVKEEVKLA
# T7 sequence (P04626 720-987 limits assumed): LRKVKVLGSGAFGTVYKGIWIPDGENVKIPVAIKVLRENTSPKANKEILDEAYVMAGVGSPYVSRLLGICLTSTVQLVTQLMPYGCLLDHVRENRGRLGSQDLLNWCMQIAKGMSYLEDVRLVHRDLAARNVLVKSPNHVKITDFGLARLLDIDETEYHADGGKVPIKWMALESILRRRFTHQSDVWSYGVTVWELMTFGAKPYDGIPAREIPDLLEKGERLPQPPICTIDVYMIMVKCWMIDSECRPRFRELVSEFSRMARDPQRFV
smiles,measurement,setting,value
"O=C(/C=C/c1ccc(-c2ccc3ncnc(Nc4ccc(OCc5cccc(F)c5)c(Cl)c4)c3c2)o1)NO [[2], E-3-(5-{4-[3-Chloro-4-(3-fluorobenzyloxy)-phenylamino]quinazolin-6-yl}furan-2-yl)-N-hydroxy-acrylamide hydrochloride monohydrate]",IC50,"[1]; A549, 72 h, read-out: Cytotoxicity towards A549 NSCLC cell line IC50 (M)",≥ 1.1e-06 M
same,IC50,[2],0.0022 to 0.15 µM
same,EC50,[3],≥ 3.65 µM
same,IC50,[4],≥ 0.0353 µM
"O=C(NO)c1ccc(-c2ccc3ncnc(Nc4ccc(OCc5cccc(F)c5)c(Cl)c4)c3c2)s1 [[4], 5-{4-[3-Chloro-4-(3-fluorobenzyloxy)phenyl-amino]quinazolin-6-yl}thiophene-2-carboxylic acid hydroxyamide hydrochloride dihydrate]",IC50,[2],0.0022 to 0.15 µM
same,EC50,[3],≥ 3.65 µM
"O=C(/C=C/c1ccc(-c2ccc3ncnc(Nc4ccc(OCc5cccc(F)c5)c(Cl)c4)c3c2)s1)NO [[7], E-3-(5-{4-[3-Chloro-4-(3-fluorobenzyloxy)-phenylamino]quinazolin-6-yl}thiophene-2-yl)-N-hydroxy-acrylamide hydrochloride monohydrate]",IC50,[5],35 µM
"Cc1ccc(NCc2ccc(C(=O)Nc3ccccc3N)cc2)cc1Nc1nccc(-c2cccnc2)n1 [[15], N-(2-Amino-phenyl)-4-{[4-methyl-3-(4-pyridin-3-yl-pyrimidin-2-ylamino)-phenylamino]-methyl}-benzamide]",IC50,[6],2.1 to 71 µM
same,IC50,[1]; [15],≥ 2.95e-06 M
same,IC50,[7],0.49 to 4.07 µM
same,IC50,[8],2 to 39 µM
same,IC50,[9],≥ 1.15 µM
same,IC50,[10],1 to 34 µM
"Cc1ccc(NC(=O)c2ccc(/C=C/C(=O)NO)cc2)cc1Nc1nc(-c2cccnc2)cs1 [[19], (E)-4-(3-(hydroxyamino)-3-oxoprop-1-enyl)-N-(4-methyl-3-(4-(pyridin-3-yl)thiazol-2-ylamino)phenyl)benzamide]",IC50,[11],0.003 to 0.78 µM
same,IC50,[6],2.1 to 71 µM
same,IC50,[8],2 to 39 µM
same,IC50,[10],1 to 34 µM
same,IC50,[4],0.077 to 1.4 µM
"CN(C(=O)c1ccc(C(=O)Nc2ccccc2N)cc1)c1cccc(Nc2nccc(-c3cccnc3)n2)c1 [[30], N-(2-Amino-phenyl)-N′-methyl-N′-[3-(4-pyridin-3-yl-pyrimidin-2-ylamino)-phenyl]-terephthalamide]",melting point,,204.6 °C (dec.)
same,IC50,[5],38 µM
same,IC50,[10],1 to 34 µM
"Cc1ccc(NC(=O)c2ccc(/C=C/C(=O)NO)s2)cc1Nc1nc(-c2cccnc2)cs1 [[33], (E)-5-(3-(hydroxyamino)-3-oxoprop-1-enyl)-N-(4-methyl-3-(4-(pyridin-3-yl)thiazol-2-ylamino)phenyl)thiophene-2-carboxamide]",melting point,,241.6 °C
same,IC50,[1]; [15],≥ 2.95e-06 M
same,IC50,[8],2 to 39 µM
same,IC50,[10],1 to 34 µM
"C#Cc1cccc(Nc2ncnc3ccc(NC(=O)c4ccc(C(=O)Nc5ccccc5N)nc4)cc23)c1 [[36], N^2-(2-aminophenyl)-N^5-(4-(3-ethynylphenylamino)-quinazolin-6-yl)pyridine-2,5-dicarboxamide]",melting point,,213 to 216 °C
same,IC50,[12],0.16 to 8 µM
same,IC50,[2],0.0022 to 0.15 µM
"C#Cc1cccc(Nc2ncnc3cc(NC(=O)c4ccc(C(=O)Nc5ccccc5N)nc4)ccc23)c1 [[39], Pyridine-2,5-dicarboxylic acid 2-[(2-amino-phenyl)-amide]-5-{[4-(3-ethynyl-phenylamino)-quinazolin-7-yl]-amide}]",IC50,[13],≥ 0.56 µM
same,IC50,[14],0.002 to 0.74 µM
